# Columns and labels:
# [1] = tested on: PC3-ML, ARCaP-M, C4–2B, RM1-BM and TRAMP-C2 cells; assay: Boyden chamber / Transwell Matrigel invasion assay; format: cell-based, human and murine; conditions: 25 μM, 18 hrs, all five cell lines
# Protocol: Boyden chamber assays were performed using Corning® BioCoat® Matrigel® Invasion Chambers obtained from Corning Inc., USA. In brief, cells were seeded on the Matrigel-coated upper chamber and treated with IVMT-Rx-4. Invaded cells were fixed, stained and counted after 18 hrs. as previously described.
# Fig. 1. Primary characterization of IVMT-Rx-4. A) Chemical structure (upper panel) and synthesis scheme (lower panel). […] All proteins were extracted, and Western blotting was performed immediately after heating. Quantifications were obtained in the absence (control) or presence of IVMT-Rx-4 and values are presented as percentage of RT (room temperature) normalized for the experimental groups (control, IVMT-Rx-4). SOD (Superoxide dismutase) was used as an endogenous control. […] Colonies were stained with crystal violet and counted (n = 3 ± SD; ns: non-significant). […] Invaded cells were stained with crystal violet. Top panel: representative photograph of invaded cells under different experimental settings. Bottom panel: graphical representation of number of invaded cells/field for different cell lines (n = 3 ± SD; * p < 0.05).
# [2] = Thermodynamic solubility in PBS, pH 7.4; format: physicochemical
# CYP3A4 = target: T1, CYP3A4 (Homo sapiens, UniProt P08684); assay: Drug-substrate based CYP inhibition, 3A4; format: in vitro ADME; conditions: human liver microsomes
# T1 construct: in the presence of human liver microsomes; from tissue; host or cells: human liver microsomes
# T1 sequence (P08684 whole entry): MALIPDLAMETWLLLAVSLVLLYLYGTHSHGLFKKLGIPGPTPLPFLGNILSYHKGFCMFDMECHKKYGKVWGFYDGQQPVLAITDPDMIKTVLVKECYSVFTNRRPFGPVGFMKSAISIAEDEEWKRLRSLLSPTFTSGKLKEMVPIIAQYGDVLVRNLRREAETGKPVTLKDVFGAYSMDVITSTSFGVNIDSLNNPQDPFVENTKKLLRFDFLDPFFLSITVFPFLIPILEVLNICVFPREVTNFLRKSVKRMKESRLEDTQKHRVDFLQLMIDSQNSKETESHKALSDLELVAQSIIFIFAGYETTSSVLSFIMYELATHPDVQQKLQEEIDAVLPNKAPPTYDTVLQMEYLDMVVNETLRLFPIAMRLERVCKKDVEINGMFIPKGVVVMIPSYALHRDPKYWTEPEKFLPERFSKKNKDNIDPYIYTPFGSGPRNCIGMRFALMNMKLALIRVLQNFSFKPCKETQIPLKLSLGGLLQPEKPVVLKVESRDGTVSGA
# Protocol: IVMT-Rx-4 was incubated with selective probe substrates of each CYP isoform in the presence of human liver microsomes. The formation of metabolite was quantified using LC-MS/MS methods. The extent of inhibition was assessed by calculating the remaining enzyme activity and percent inhibition based on analyte-to-internal standard area ratios, using the following equations:
# Area Ratio = Peak AreaAnalyte / Peak AreaInternal Standard
# Remaining Activity (%) = Area Ratiotest compound / Area Ratiovehicle ×100
# Inhibition (%) = 100 ̶ Remaining Activity (%)
# MST = assay: Western blot, PDGF-AA activated HS5 cells: MST; format: cell-based, human; conditions: PDGF-AA 10 ng/ML, 25 μM, 24 hrs
# CXCL5 = CXCL5 mRNA by qRT-PCR in HS5 cells; format: cell-based, human; conditions: PDGF-AA activated HS5 cells, 24 hrs
# Protocol: Total RNA was extracted from cells using miRNeasy kits (Qiagen), and cDNA was prepared as described previously. Gene specific TaqMan Probes were obtained from Applied Bio system, Thermo-Fisher, USA. qRT-PCR was performed using an ABI Quant Studio real-time PCR.
# Fig. 3. […] CXCL5 mRNA expression was measured by qRT-PCR. […] Secreted CXCL5 in CM was measured by ELISA (n = 3 ± SD; * p < 0.05). […] CXCL5 mRNA expression was measured by qRT-PCR (n = 3 ± SD; * p < 0.05).
smiles,measurement,setting,value
Cc1cc(NC(=O)CCc2nnc(-c3ccccc3)o2)c(C)cc1N [IVMT-Rx-4],cellular invasion,[1],effectively suppressed cellular invasion
same,"Thermodynamic solubility in PBS, pH 7.4",[2],~160 mg/ML
same,solubility thermodynamic,"[2]; pH 7.4, aqueous buffer, thermodynamic from solid",160 mg/mL
same,IC50,CYP3A4,~10 µM
same,phosphorylation of MST,MST,promoted the phosphorylation of MST
same,CXCL5 mRNA level,CXCL5,significantly decreased

# — publication PMC13401508 (Pharmacological research, 2026)
